Reference: US6521654B2, “Substituted imidazolidine derivatives, their preparation, their use and pharmaceutical preparations including them” (Aventis Pharma Deutschland GmbH, priority 1997, dated 2003)

biological target: T1, interaction between VCAM-1 and VLA-4 (Homo sapiens, UniProt P05556+P13612); assay: U937/VCAM-1 cell adhesion test (adhesion of U937 cells to hVCAM-1(1-3)-IgG); type: cell-based; conditions: concentration leading to 50% inhibition of adhesion of human U937 cells (ATCC CRL 1593) to hVCAM-1(1-3)-IgG
T1 construct: supplied in their natural form as surface molecules on human U937 cells; host or cells: U937 cells carry endogenous VLA-4; The partner hVCAM-1(1-3)-IgG was made in house in transfected COS cells (ATCC CRL1651) and used as culture supernatant
From the text: The test method used for the activity of the compounds of the formula I on the interaction between VCAM-1 and VLA-4 is the assay described below which is specific for this interaction. The cellular binding components, i.e., the VLA-4 integrins, are supplied in their natural form as surface molecules on human U937 cells (ATCC CRL 1593). which belong to the leucocytes group. The specific binding components used are genetically engineered recombinant soluble fusion proteins, consisting of the extracytoplasmatic domain of human VCAM-1 and the constant region of a human immunoglobulin of the subclass IgG1.
Assay for the Measurement of the Adhesion of U937 Cells (ATCC CRL 1593) to hVCAM-1(1-3)-IgG
1. Preparation of Human VCAM-1 (1-3)-IgG and Human CD4-IgG
A genetic construct for the expression of the extracellular domain of human VCAM-1, associated with the genetic sequence of the heavy chain of human immunoglobulin IgG1 (hinge, CH2 and CH3 regions), from Dr. Brian Seed, Massachusetts General Hospital. Boston, USA was employed (cf. Damle and Aruffo, Proc. Natl. Acad. Sci. USA 1991, 88, 6403-6407). The soluble fusion protein hVCAM-1(1-3)-IgG contained the three amino-terminal extracellular immunoglobulin-like domains of human VCAM-1 (Damle and Aruffo, Proc. Natl. Acad. Sci. USA 1991, 88, 6403-6407). CD4-IgG (Zettimeissl et al., DNA and Cell Biology 1990, 9, 347) served as a fusion protein for negative controls. The recombinant proteins were expressed as soluble proteins after DEAE/dextran-mediated DNA transfection in COS cells (ATCC CRL1651) according to standard procedures (Ausubel et al., Current Protocols in Molecular Biology, John Wiley & Sons, Inc., 1994).
2. Assay for the Measurement of the Adhesion of U937 Cells to hVCAM-1 (1-3)-IgG
2.1 96-well microtiter test plates (Nunc Maxisorb) were incubated at room temperature for 1 hour with 100 μl/well of a goat-anti-human IgG antibody solution (10 μg/ml in 50 mM tris, pH 9.5). After removal of the antibody solution, washing was carried out once with PBS.
2.2 150 μl/well of a blocking buffer (1% BSA in PBS) were incubated on the plates at room temperature for 0.5 hour. After removal of the blocking buffer, washing was carried out once with PBS.
2.3 100 μl per well of a cell culture supernatant of transfected COS cells were incubated on the plates at room temperature for 1.5 hours. The COS cells were transfected with a plasmid which codes for the three N-terminal immunoglobulin-like domains of VCAM-1, coupled to the Fc part of human IgG1 (hVCAM-1 (1-3)-IgG). The content of hVCAM-1 (1-3)-IgG was about 0.5-1 μg/ml. After removal of the culture supernatant, washing was carried out once with PBS.
2.4 The plates were incubated at room temperature for 20 minutes with 100 μl/well of Fc receptor blocking buffer (1 mg/ml of γ-globulin, 100 mM NaCl, 100 μM MgCl2, 100 μM MnCl2, 100 μM CaCl2, 1 mg/ml of BSA in 50 mM HEPES, pH 7.5). After removal of the Fc receptor blocking buffer, washing was carried out once with PBS.
2.5 20 μl of binding buffer (100 mM NaCl, 100 μM MgCl2, 100 μM MnCl2, 100 μM CaCl2, 1 mg/ml of BSA in 50 mM HEPES, pH 7.5) were initially introduced, and the substances to be tested were added in 10 μl of binding buffer and incubated for 20 minutes. The controls used were antibodies against VCAM-1 (BBT, No. BBA6) and against VLA-4 (immunotech, No. 0764).
2.6 U937 cells were incubated in Fc receptor blocking buffer for 20 minutes and then added by pipette in a concentration of 1×10^6/ml and in an amount of 100 μl per well ([…]).
2.7 The plates were slowly immersed at an angle of 45° in stop buffer (100 mM NaCl, 100 μM MgCl2, 100 μM MnCl2, 100 μM CaCl2 in 25 mM tris, pH 7.5) and shaken off. The process was repeated.
2.8 50 μl/well of a dye solution (16.7 μg/ml of Hoechst Dye 33258, 4% formaldehyde, 0.5% triton X-100 in PBS) were then incubated on the plates for 15 minutes. […]

T1 sequence (P13612 34-1032): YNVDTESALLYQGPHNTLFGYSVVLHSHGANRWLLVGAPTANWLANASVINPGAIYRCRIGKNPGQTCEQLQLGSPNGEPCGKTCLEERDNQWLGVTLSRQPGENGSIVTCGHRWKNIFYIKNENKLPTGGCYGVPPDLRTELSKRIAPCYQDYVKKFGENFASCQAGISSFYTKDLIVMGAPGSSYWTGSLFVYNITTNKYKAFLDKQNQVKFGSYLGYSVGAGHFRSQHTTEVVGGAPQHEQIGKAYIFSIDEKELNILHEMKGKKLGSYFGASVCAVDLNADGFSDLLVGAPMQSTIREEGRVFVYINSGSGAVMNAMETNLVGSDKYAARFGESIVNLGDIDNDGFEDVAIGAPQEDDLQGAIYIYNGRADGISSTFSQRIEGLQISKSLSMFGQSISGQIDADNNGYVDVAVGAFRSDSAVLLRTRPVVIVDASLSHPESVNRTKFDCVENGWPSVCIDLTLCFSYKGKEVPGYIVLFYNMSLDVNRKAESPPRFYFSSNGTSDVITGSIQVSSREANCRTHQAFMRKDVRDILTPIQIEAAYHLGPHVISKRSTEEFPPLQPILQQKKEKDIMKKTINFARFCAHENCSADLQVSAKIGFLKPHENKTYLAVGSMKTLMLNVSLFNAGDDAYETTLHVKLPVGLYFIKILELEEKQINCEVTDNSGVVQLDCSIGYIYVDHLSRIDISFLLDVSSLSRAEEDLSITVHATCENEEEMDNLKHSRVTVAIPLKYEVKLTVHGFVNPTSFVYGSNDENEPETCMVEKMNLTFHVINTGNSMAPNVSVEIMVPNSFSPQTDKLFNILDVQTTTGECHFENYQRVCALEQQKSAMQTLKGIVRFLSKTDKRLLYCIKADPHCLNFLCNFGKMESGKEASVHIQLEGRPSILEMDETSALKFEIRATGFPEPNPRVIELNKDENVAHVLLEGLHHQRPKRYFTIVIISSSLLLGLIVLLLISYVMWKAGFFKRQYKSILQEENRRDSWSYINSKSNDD
T1 sequence (P05556 21-798): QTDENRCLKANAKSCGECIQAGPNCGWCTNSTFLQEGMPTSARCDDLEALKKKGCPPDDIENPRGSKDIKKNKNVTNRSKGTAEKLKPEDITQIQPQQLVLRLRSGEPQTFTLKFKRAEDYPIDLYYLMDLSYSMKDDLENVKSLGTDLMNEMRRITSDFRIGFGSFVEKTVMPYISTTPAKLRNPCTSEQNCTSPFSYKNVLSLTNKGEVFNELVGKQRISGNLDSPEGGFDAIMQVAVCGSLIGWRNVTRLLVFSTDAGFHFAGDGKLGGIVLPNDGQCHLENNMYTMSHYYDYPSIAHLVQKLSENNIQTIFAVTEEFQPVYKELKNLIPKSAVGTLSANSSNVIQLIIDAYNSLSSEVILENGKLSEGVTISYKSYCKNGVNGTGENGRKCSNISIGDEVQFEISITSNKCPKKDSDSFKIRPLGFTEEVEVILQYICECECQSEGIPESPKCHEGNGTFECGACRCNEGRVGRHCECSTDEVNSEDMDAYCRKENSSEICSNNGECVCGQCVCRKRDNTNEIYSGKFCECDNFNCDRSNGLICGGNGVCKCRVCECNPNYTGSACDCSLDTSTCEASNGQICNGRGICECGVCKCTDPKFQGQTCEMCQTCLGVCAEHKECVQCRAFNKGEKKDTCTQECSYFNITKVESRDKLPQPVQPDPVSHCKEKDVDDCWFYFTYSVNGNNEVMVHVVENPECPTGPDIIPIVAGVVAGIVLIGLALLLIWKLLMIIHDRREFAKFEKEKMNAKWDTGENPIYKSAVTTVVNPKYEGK

Question: `CC(C)CC(C(=O)N[C@@H](CC(=O)O)C(=O)N[C@H](C(=O)O)c1ccccc1)N1C(=O)N(Cc2ccc(NC(=O)Nc3ccccc3)cc2)C(C)(c2ccccc2)C1=O` (mixture of isomers) [Example 1, ((RS)-2-((RS)-4-Phenyl-3-(4-(3-phenylureido)benzyl)-4-methyl-2,5-dioxoimidazolidin-1-yl)-2-(2-methylpropyl)acetyl)-L-aspartyl-L-phenylglycine] was tested. Which IC50 did it give?
Answer: 4 nM

Question: Which IC50 does the source give for `COc1ccc([C@H](CC(=O)O)NC(=O)C(CC(C)C)N2C(=O)N(Cc3ccc(NC(=O)Nc4ccccc4C)cc3)C(C)(c3ccccc3)C2=O)c(OC)c1` (mixture of isomers) [Example 189, (S)-3-((RS)-2-((RS)-4-Methyl-4-phenyl-3-(4-(3-(2-methylphenyl)ureido)benzyl)-2,5-dioxoimidazolidin-1-yl)-2-(2-methylpropyl)acetylamino)-3-(2,4-dimethoxyphenyl)propionic Acid] here?
Answer: 50 nM

Question: For `Cc1ccccc1NC(=O)Nc1ccc(CN2C(=O)N([C@@H](CC(C)C)C(=O)NC(CC(=O)O)c3ccccc3)C(=O)C2(C)C)cc1` (mixture of isomers) [Example 196, (RS)-3-((S)-2-(4,4-Dimethyl-3-(4-(3-(2-methylphenyl)ureido)benzyl)-2,5-dioxoimidazolidin-1-yl)-2-(2-methylpropyl)acetylamino)-3-phenylpropionic Acid], which IC50 is on record?
Answer: 25 nM

Question: `CCCCS(=O)(=O)NC(CNC(=O)C(CC(C)C)N1C(=O)N(Cc2ccc(NC(=O)Nc3ccccc3C)cc2)C(C)(c2ccccc2)C1=O)C(=O)O` (racemic) [Example 195, (RS)-2-Butylsulfonylamino-3-((RS)-2-((RS)-4-methyl-4-phenyl-3-(4-(3-(2-methyl-phenyl)ureido)benzyl)-2,5-dioxoimidazolidin-1-yl)-2-(2-methylpropyl)acetylamino)propionic Acid] was tested. Which IC50 did it give?
Answer: 23 nM

Question: How did the IC50 turn out when `Cc1ccccc1NC(=O)Nc1ccc(CN2C(=O)N(C(CC(C)C)C(=O)N[C@@H](CC(=O)O)C(=O)N[C@H](C(=O)OC(C)(C)C)c3ccccc3)C(=O)C2(C)c2ccccc2)cc1` (mixture of isomers) [Example 219] was run?
Answer: 175 nM

Question: With `CC(C)C[C@@H](C(=O)N[C@@H](CC(=O)O)c1ccc2c(c1)OCO2)N1C(=O)N(Cc2ccc(NC(=O)Nc3ccccc3)cc2)C(C)(C)C1=O` [Example 5, (S)-3-((S)-2-(4,4-Dimethyl-3-(4-(3-phenylureido)benzyl)-2,5-dioxoimidazolidin-1-yl)-2-(2-methylpropyl)acetylamino)-3-(3,4-methylenedioxyphenyl)propionic Acid] as the compound, how does the IC50 read?
Answer: 5 nM

Question: For `CC(C)C[C@@H](C(=O)N[C@H](C)CC(=O)O)N1C(=O)N(Cc2ccc(NC(=O)Nc3ccccc3)cc2)C(C)(C)C1=O` [Example 6, (R)-3-((S)-2-(4,4-Dimethyl-3-(4-(3-phenylureido)benzyl)2,5-dioxoimidazolidin-1-yl)-2-(2-methylpropyl)acetylamino)-3-methylpropionic Acid], which IC50 is on record?
Answer: 30 nM

Question: How did the IC50 turn out when `Cc1ccccc1NC(=O)Nc1ccc(CN2C(=O)N([C@@H](CC(C)C)C(=O)N[C@@H](CC(=O)O)c3ccc4c(c3)OCO4)C(=O)C2(C)C)cc1` [Example 7, (S)-3-((S)-2-(4,4-Dimethyl-3-(4-(3-(2-methylphenyl)ureido)benzyl)-2,5-dioxoimidazolidin-1-yl)-(2-methylpropyl)acetylamino)-3-(3,4-methylenedioxyphenyl)propionic Acid] was run?
Answer: 2.5 nM

Question: How did the IC50 turn out when `Cc1ccccc1NC(=O)Nc1ccc(CN2C(=O)N([C@@H](CC(C)C)C(=O)N[C@H](C)CC(=O)O)C(=O)C2(C)C)cc1` [Example 8, (R)-3-((S)-2-(4,4-Dimethyl-3-(4-(3-(2-methylphenyl)ureido)benzyl)-2,5-dioxoimidazolidin-1-yl)-2-(2-methylpropyl)acetylamino)-3-methylpropionic Acid] was run?
Answer: 3.8 nM

Question: With `Cc1ccccc1NC(=O)Nc1ccc(CN2C(=O)N(CC(=O)N[C@H](C)CC(=O)O)C(=O)C2(C)C)cc1` [Example 9, (R)-3-(2-(4,4-Dimethyl-3-(4-(3-(2-methylphenyl)ureido)benzyl)-2,5-dioxoimidazolidin-1-yl)acetylamino)-3-methylpropionic Acid] as the compound, how does the IC50 read?
Answer: 20 nM

Question: Which IC50 does the source give for `Cc1ccccc1NC(=O)Nc1ccc(CN2C(=O)N([C@@H](CC(C)C)C(=O)NCC(=O)O)C(=O)C2(C)C)cc1` [Example 10, 2-((S)-2-(4,4-Dimethyl-3-(4-(3-(2-methylphenyl)ureido)benzyl)-2,5-dioxoimidazolidin-1-yl)-2-(2-methylpropyl)acetylamino)acetic Acid] here?
Answer: 600 nM

Question: For `Cc1ccccc1NC(=O)Nc1ccc(CN2C(=O)N(CC(=O)N[C@@H](CC(=O)O)c3ccccc3)C(=O)C2(C)C)cc1` [Example 11, (S)-3-(2-(4,4-Dimethyl-3-(4-(3-(2-methylphenyl)ureido)benzyl)2,5-dioxoimidazolidin-1-yl)acetylamino)-3-phenylpropionic Acid], which IC50 is on record?
Answer: 10 nM

Question: For `Cc1ccccc1NC(=O)Nc1ccc(CN2C(=O)N(CC(=O)NCCC(=O)O)C(=O)C2(C)C)cc1` [Example 15, 3-(2-(4,4-Dimethyl-3-(4-(3-(2-methylphenyl)ureido)benzyl)-2,5-dioxoimidazolidin-1-yl)acetylamino)propionic Acid], which IC50 is on record?
Answer: 30 nM

Question: For `Cc1ccccc1NC(=O)Nc1ccc(CN2C(=O)N([C@@H](CC(C)C)C(=O)NCCC(=O)O)C(=O)C2(C)C)cc1` [Example 16, 3-((S)-2-(4,4-Dimethyl-3-(4-(3-(2-methylphenyl)ureido)benzyl)-2,5-dioxoimidazolidin-1-yl)-2-(2-methylpropyl)acetylamino)propionic Acid], which IC50 is on record?
Answer: 55 nM

Question: `Cc1ccccc1NC(=O)Nc1ccc(CN2C(=O)N([C@@H](CC(C)C)C(=O)N[C@@H](CC(=O)O)c3ccccc3)C(=O)C2(C)C)cc1` [Example 17, (S)-3-((S)-2-(4,4-Dimethyl-3-(4-(3-(2-methylphenyl)ureido)benzyl)-2,5-dioxoimidazolidin-1-yl)-2-(2-methylpropyl)acetylamino)-3-phenylpropionic Acid] was tested. Which IC50 did it give?
Answer: 1.5 nM

Question: With `CC(C)C[C@@H](C(=O)N[C@@H](CC(=O)O)c1ccccc1)N1C(=O)N(Cc2ccc(NC(=O)Nc3ccccc3)cc2)C(C)(C)C1=O` [Example 19] as the compound, how does the IC50 read?
Answer: 3 nM

Question: `Cc1ccccc1NC(=O)Nc1ccc(CN2CC(=O)N(CC(=O)N(C)[C@@H](CC(=O)O)C(=O)NC3C4CC5CC(C4)CC3C5)C2=O)cc1` (some centres unmarked) [Example 20] was tested. Which IC50 did it give?
Answer: 160 nM

Question: `Cc1ccccc1NC(=O)Nc1ccc(CN2CC(=O)N(CC(=O)N[C@@H](CC(=O)O)C(=O)NC3C4CC5CC(C4)CC3C5)C2=O)cc1` (some centres unmarked) [Example 21] was tested. Which IC50 did it give?
Answer: 520 nM

Question: How did the IC50 turn out when `Cc1ccccc1NC(=O)Nc1ccc(CN2C(=O)N(CC(=O)N(C)[C@@H](CC(=O)O)C(=O)NC3C4CC5CC(C4)CC3C5)C(=O)C2(C)C)cc1` (stereo partly drawn) [Example 22, (2-(4,4-Dimethyl-3-(4-(3-(2-methylphenyl)ureido)benzyl)-2,5-dioxoimidazolidin-1-yl)-acetyl)-N-methyl-L-(2-adamantyl)aspartamide] was run?
Answer: 4 nM

Question: `CN(C(=O)CN1C(=O)N(Cc2ccc(NC(=O)Nc3ccccc3)cc2)C(C)(C)C1=O)[C@@H](CC(=O)O)C(=O)NC1C2CC3CC(C2)CC1C3` (some centres unmarked) [Example 23] was tested. Which IC50 did it give?
Answer: 16 nM
